Source: patent US5994342A, “3-(substituted methyl)-4-oxa-1-azabicyclo[3.2.0]heptan-7-one derivatives useful as antitumor agents” (priority 1994, dated 1999)
≈ marks a conversion by molar mass, not a printed value. Structures can show the parent of a compound that is named as a salt.

Key:
Sarcoma 180 = assay: In vivo antitumor activity against Sarcoma 180; design: species or system male ICR mice; details: i.p., days 1, 5 and 9
Protocol: In Vivo Antitumor Activity Against Sarcoma 180
The compounds of general formula (I) were tested in vivo against Sarcoma 180 xenografted tumor to mice as illustrated herein after.
Sarcoma 180, 5×10^6 cells were inoculated by S.C. to male ICR mice (6 week old) on day 0. Drugs were administered on days 1, 5 and 9. Mice were killed and tumor weight was measured on day 12 after transplantation. The percentage inhibition of tumor growth was calculated from the mean tumor weight of the treated group compared with that of the control group. Number of mice used in each group was between 6 to 7.

KB cells = assay: In vitro KB cell cytotoxicity assay (crystal violet); format: cell-based; details: Homo sapiens, 72 h, 3 days culture, read-out: KB Cell Cytotoxicity TD50
Protocol: In Vitro KB Cell Cytotoxicity Assay In vitro KB cell cytoxocity assay was done by modification of the crystal violet assay ([…] et al., Anal Biochem., 159, 109-113 (1986). KB cells were cultivated in Eagles minimum essential medium supplemented with 10% calf serum and incubated at 37° C. in a humidified 5% CO2 atmosphere to prepare a cell stock. Cells were counted using a neubauer hemocytometer and seeded in 96 well plates at 100 μl of 3×10^4 cells/ml and cultured for one day. […] Control wells were identical except that test compound was absent. These were cultured for three days. Then the cells were fixed with addition of 20 μl of 25% glutaraldehyde for 15 minutes, washed with water and dried. Then stained with 100 μl of 0.05% crystal violet for 15 minutes, washed with water and dried. The wells are eluted with […] of 0.05M NaH2 PO4 /ethanol (1:1 v/v) and read at OD540 on a multiscan spectrophotometer. Inhibition value of cell growth was calculated based on optical density using the following equation; [formula] TD50 values were calculated from linear regression ines of the log-logit plot.

[1] = Mus musculus, Sarcoma-180, ip, 288 h, 25 mg/kg/day, tumor s.c., tumor weight day 12, read-out: % Inhibition of tumor growth
[2] = Mus musculus, Sarcoma-180, ip, 288 h, 50 mg/kg/day, tumor s.c., tumor weight day 12, read-out: % Inhibition of tumor growth
[3] = Mus musculus, Sarcoma-180, ip, 288 h, 100 mg/kg/day, tumor s.c., tumor weight day 12, read-out: % Inhibition of tumor growth
[4] = Mus musculus, Sarcoma-180, ip, 288 h, 12.5 mg/kg/day, tumor s.c., tumor weight day 12, read-out: % Inhibition of tumor growth
[5] = Mus musculus, Sarcoma-180, ip, 288 h, 6.3 mg/kg/day, tumor s.c., tumor weight day 12, read-out: % Inhibition of tumor growth

Row | Structure (SMILES) | IC50 (KB cells) | Mortality in 12 days (Sarcoma 180; 25 mg/kg/day) | Mortality in 12 days (Sarcoma 180; 50 mg/kg/day) | Mortality in 12 days (Sarcoma 180; 100 mg/kg/day) | inhibition in vivo at 25 mg/kg (Sarcoma 180; [1]) | inhibition in vivo at 50 mg/kg (Sarcoma 180; [2]) | inhibition in vivo at 100 mg/kg (Sarcoma 180; [3]) | Mortality in 12 days (Sarcoma 180; 12.5 mg/kg/day) | inhibition in vivo at 12.5 mg/kg (Sarcoma 180; [4]) | also measured
1 | O=C(NC[C@@H]1CN2C(=O)C[C@H]2O1)C1CCCCC1 (racemic) [Example 6, (3RS,5RS)-3-(N-Cyclohexylcarbonylaminomethyl)-4-oxa-1-azabicyclo[3.2.0]heptan-7-one] | 0.073 µg/mL (≈ 0.289 µM) |  |  |  |  |  |  |  |  | Mortality in 12 days (Sarcoma 180; 20 mg/kg/day): 0/6; Mortality in 12 days (Sarcoma 180; 40 mg/kg/day): 0/6; Mortality in 12 days (Sarcoma 180; 80 mg/kg/day): 0/6; inhibition in vivo at 20 mg/kg (Sarcoma 180; Mus musculus, Sarcoma-180, ip, 288 h, 20 mg/kg/day, tumor s.c., tumor weight day 12, read-out: % Inhibition of tumor growth): 32.1%; inhibition in vivo at 40 mg/kg (Sarcoma 180; Mus musculus, Sarcoma-180, ip, 288 h, 40 mg/kg/day, tumor s.c., tumor weight day 12, read-out: % Inhibition of tumor growth): 35.7%; inhibition in vivo at 80 mg/kg (Sarcoma 180; Mus musculus, Sarcoma-180, ip, 288 h, 80 mg/kg/day, tumor s.c., tumor weight day 12, read-out: % Inhibition of tumor growth): 43.3%
2 | CC(C)[C@H](N)C(=O)OC[C@H]1CN2C(=O)C[C@@H]2O1.Cl (mixture of isomers) [Example 54B, (3RS,5SR)-3-(L-2-Amino-3-methylbutyryl)oxymethyl-4-oxa-1-azabicyclo[3.2.0]heptan-7-one hydrochloride] | 1.9 µg/mL | 0/6 | 0/6 | 0/6 | 28.5% | 53.8% | 84.3% |  |  | 
3 | CC(C)[C@H](N)C(=O)N[C@H](C(=O)OCC1CN2C(=O)CC2O1)C(C)C (stereo partly drawn) [Example 56B, (3RS,5SR)-3-[L-2-N-(L-2-Amino-3-methylbutyryl)amino-3-methylbutyryl]oxymethyl-4-oxa-1-azabicyclo-[3.2.0]heptan-7-one hydrochloride] | 0.283 µg/mL | 0/6 | 0/6 |  | 69.2% | 73.2% |  | 0/6 | 48.9% | 
4 | CCN(CC)C(=O)NC[C@@H]1CN2C(=O)C[C@H]2O1 (racemic) [Example 33, (3RS,5RS)-3-[N-(N,N-Diethylcarbamyl)]aminomethyl-4-oxa-1-azabicyclo[3.2.0]heptan-7-one] | 0.246 µg/mL (≈ 1.02 µM) |  |  |  |  |  |  |  |  | Mortality in 12 days (Sarcoma 180; 22.5 mg/kg/day): 0/6; Mortality in 12 days (Sarcoma 180; 45 mg/kg/day): 0/6; Mortality in 12 days (Sarcoma 180; 90 mg/kg/day): 0/6; inhibition in vivo at 22.5 mg/kg (Sarcoma 180; Mus musculus, Sarcoma-180, ip, 288 h, 22.5 mg/kg/day, tumor s.c., tumor weight day 12, read-out: % Inhibition of tumor growth): 46.6%; inhibition in vivo at 45 mg/kg (Sarcoma 180; Mus musculus, Sarcoma-180, ip, 288 h, 45 mg/kg/day, tumor s.c., tumor weight day 12, read-out: % Inhibition of tumor growth): 66.2%; inhibition in vivo at 90 mg/kg (Sarcoma 180; Mus musculus, Sarcoma-180, ip, 288 h, 90 mg/kg/day, tumor s.c., tumor weight day 12, read-out: % Inhibition of tumor growth): 74.5%
5 | N[C@@H](CC(=O)O)C(=O)NCC1CN2C(=O)CC2O1 (stereo partly drawn) [Example 67B, (3RS,5RS)-3-N-(L-2-Amino-3-carboxypropanoyl)aminomethyl-4-oxa-1-azabicyclo[3.2.0]heptan-7-one] | 6.04 µg/mL (≈ 23.5 µM) |  | 0/6 | 0/6 |  | 41.1% | 65.9% |  |  | 
6 | N[C@@H](CC(=O)O)C(=O)NCC(=O)NCC1CN2C(=O)CC2O1 (stereo partly drawn) [Example 46B, (3RS,5RS)-3-N-[N-(L-2-Amino-3-carboxypropanoyl)aminoacetyl]aminomethyl-4-oxa-1-azabicyclo[3.2.0]heptan-7-one] | 2.63 µg/mL (≈ 8.37 µM) | 0/6 | 1/6 |  | 55.7% | 76.9% |  | 0/6 | 44.7% | 
7 | C[C@@H](N)C(=O)NCC1CN2C(=O)CC2O1 (stereo partly drawn) [Example 53B, (3RS,5RS)-3-N-(D-2-Aminopropanoyl)aminomethyl-4-oxa-1-azabicyclo[3.2.0]heptan-7-one hydrochloride] | 0.316 µg/mL | 1/6 |  |  | 73.8% |  |  | 0/6 | 61.9% | Mortality in 12 days (Sarcoma 180; 6.3 mg/kg/day): 0/6; inhibition in vivo at 6.3 mg/kg (Sarcoma 180; [5]): 47.3%
8 | C[C@@H](NC(=O)Cc1cccs1)C(=O)N[C@H](C)C(=O)OCC1CN2C(=O)CC2O1 (stereo partly drawn) [Example 52, (3RS,5SR)-3-{D-2-N-[D-2-N-(Thiophen-2-yl)acetylaminopropanoyl]aminopropanoyl}oxymethyl-4-oxa-1-azabicyclo[3.2.0]heptan-7-one] | 0.197 µg/mL (≈ 0.481 µM) | 0/6 | 0/6 | 2/6 | 45.2% | 63.9% | 70.7% |  |  | 
9 | CC(=O)N[C@@H](CO)C(=O)OCC1CN2C(=O)CC2O1 (stereo partly drawn) [Example 75A, (3RS,5SR)-3-(L-2-Acetamido-3-hydroxypropanoyl)oxymethyl-4-oxa-1-azabicyclo[3.20]heptan-7-one] | 1.98 µg/mL (≈ 7.27 µM) | 0/6 |  |  | 61.9% |  |  | 0/6 | 42.8% | 
10 | CC(C)[C@H](NC(=O)[C@@H](N)CC(=O)O)C(=O)OCC1CN2C(=O)CC2O1 (stereo partly drawn) [Example 57B, (3RS,5RS)-3-N-[L-2-N-(L-2-Amino-3-carboxypropanoyl)amino-3-methylbutyryl]oxymethyl-4-oxa-1-azabicyclo[3.2.0]heptan-7-one] | 1.54 µg/mL (≈ 4.31 µM) | 0/6 | 1/6 |  | 58.1% | 83.1% |  | 0/6 | 40.9% | 
11 | O=C(NCCCC[C@H](NC(=O)OCc1ccccc1)C(=O)OCC1CN2C(=O)CC2O1)OCc1ccccc1 (stereo partly drawn) [Example 77A, (3RS,5SR)-3-(L-2,6-N-Dibenzyloxycarbonylaminohexanoyl)oxymethyl-4-oxa-1-azabicyclo[3.2.0]heptan-7-one] | 1.18 µg/mL (≈ 2.19 µM) |  | 0/6 | 2/6 |  | 39.1% | 67.3% |  |  | 
12 | C[C@H](N)C(=O)NCC(=O)OC[C@H]1CN2C(=O)C[C@@H]2O1.Cl (mixture of isomers) [Example 41B, (3RS,5SR)-3-[N-(L-2-Aminopropanoyl)aminoacetyl]oxymethyl-4-oxa-1-azabicyclo[3.2.0]heptan-7-one hydrochloride] | 0.295 µg/mL | 0/6 |  |  | 62.8% |  |  | 0/6 | 43.9% | 
13 | N[C@@H](CC(=O)O)C(=O)OC[C@H]1CN2C(=O)C[C@@H]2O1 (mixture of isomers) [Example 66B, (3RS,5SR)-3-(L-2-Amino-3-carboxypropanoyl)oxymethyl-4-oxa-1-azabicyclo[3.2.0]heptan-7-one] | 0.204 µg/mL | 0/6 |  |  | 62.9% |  |  | 0/6 | 53.2% | Mortality in 12 days (Sarcoma 180; 6.3 mg/kg/day): 0/6; inhibition in vivo at 6.3 mg/kg (Sarcoma 180; [5]): 33.7%
14 | COc1ccc(S(=O)(=O)NC[C@H]2CN3C(=O)C[C@@H]3O2)cc1 (relative stereo) [Example 38, (3RS,5RS)-3-N-(4-Methoxybenzenesulfonyl)aminomethyl-4-oxa-1-azabicyclo[3.2.0]heptan-7-one] | 0.158 µg/mL (≈ 0.506 µM) | 0/6 | 0/6 | 1/6 | 26.5% | 55.4% | 72% |  |  | 
15 | CC(C)[C@H](N)C(=O)N[C@@H](C)C(=O)OCC1CN2C(=O)CC2O1 (stereo partly drawn) [Example 49B, (3RS,5SR)-3-[L-2-N-(L-2-Amino-3-methylbutyryl)aminopropanoyl]oxymethyl-4-oxa-1-azabicyclo[3.2.0]heptan-7-one hydrochloride] | 0.537 µg/mL | 0/6 | 0/6 |  | 55.7% | 71% |  |  |  | 
